{
  "source": "paper PMC10265916",
  "about": "“Elraglusib (formerly 9-ING-41) possesses potent anti-lymphoma properties which cannot be attributed to GSK3 inhibition” (Cell Communication and Signaling : CCS, 2023)",
  "type_in_all_cases": "biochemical",
  "key": {"[1]": {"biological_target": "PIM3 (proto-oncogene serine/threonine-protein kinase 3) (Homo sapiens, UniProt Q86V86)", "assay": "[…] cell-free kinase screen, […] inhibition at […]"}, "[2]": {"biological_target": "T1, GSK3β (Homo sapiens, UniProt P49841)", "T1 construct": "gene GSK3B", "T1 sequence (P49841 whole entry)": "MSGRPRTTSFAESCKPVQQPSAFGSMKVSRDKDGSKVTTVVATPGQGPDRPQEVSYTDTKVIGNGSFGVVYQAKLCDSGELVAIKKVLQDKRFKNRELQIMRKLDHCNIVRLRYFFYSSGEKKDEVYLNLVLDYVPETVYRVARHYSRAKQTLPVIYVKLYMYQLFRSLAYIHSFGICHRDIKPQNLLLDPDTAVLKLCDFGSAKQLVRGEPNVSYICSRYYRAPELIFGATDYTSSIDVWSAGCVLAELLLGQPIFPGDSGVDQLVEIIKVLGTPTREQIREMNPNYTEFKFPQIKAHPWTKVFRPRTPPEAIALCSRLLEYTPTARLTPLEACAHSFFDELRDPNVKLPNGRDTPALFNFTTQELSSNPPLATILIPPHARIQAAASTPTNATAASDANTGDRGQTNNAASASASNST", "assay": "in vitro GSK3β kinase assay (IC50) and […] cell-free kinase screen"}, "[3]": {"biological_target": "PIM1 (proto-oncogene serine/threonine-protein kinase 1) (Homo sapiens, UniProt P11309)", "sequence (P11309 whole entry)": "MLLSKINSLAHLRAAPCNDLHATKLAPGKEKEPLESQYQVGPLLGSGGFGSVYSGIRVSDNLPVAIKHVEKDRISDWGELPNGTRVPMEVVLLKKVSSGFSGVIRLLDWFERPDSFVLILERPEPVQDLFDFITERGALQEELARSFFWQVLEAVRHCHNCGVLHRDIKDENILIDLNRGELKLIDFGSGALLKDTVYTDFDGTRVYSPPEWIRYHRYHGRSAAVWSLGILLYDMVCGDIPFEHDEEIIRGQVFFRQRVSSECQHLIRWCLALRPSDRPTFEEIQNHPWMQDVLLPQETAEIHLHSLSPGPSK", "assay": "[…] cell-free kinase screen, […] inhibition at […]"}, "[4]": {"biological_target": "T2, MST2 (serine/threonine-protein kinase 3, STK3) (Homo sapiens, UniProt Q13188)", "T2 sequence (Q13188 1-491)": "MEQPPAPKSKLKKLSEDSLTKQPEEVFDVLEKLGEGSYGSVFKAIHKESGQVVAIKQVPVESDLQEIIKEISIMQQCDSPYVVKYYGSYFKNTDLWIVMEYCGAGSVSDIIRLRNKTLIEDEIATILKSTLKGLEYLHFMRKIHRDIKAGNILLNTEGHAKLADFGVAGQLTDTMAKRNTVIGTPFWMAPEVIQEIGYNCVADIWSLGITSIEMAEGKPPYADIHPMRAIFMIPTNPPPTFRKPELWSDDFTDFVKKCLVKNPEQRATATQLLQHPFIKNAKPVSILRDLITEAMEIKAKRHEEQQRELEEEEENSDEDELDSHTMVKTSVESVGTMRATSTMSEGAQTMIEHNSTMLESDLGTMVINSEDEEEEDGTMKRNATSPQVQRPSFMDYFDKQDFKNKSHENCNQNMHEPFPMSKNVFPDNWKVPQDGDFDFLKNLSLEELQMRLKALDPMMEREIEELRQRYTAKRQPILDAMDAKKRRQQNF", "assay": "[…] cell-free kinase screen, […] inhibition at […]"}},
  "data": [
    {"smiles": "Cn1cc(C2=C(c3coc4ccc(F)cc34)C(=O)NC2=O)c2cc3c(cc21)OCO3", "note": "[elraglusib]", "values": [
      {"measurement": "inhibition at 5 µM", "setting": "[1]", "result": "> 50", "unit": "%"},
      {"measurement": "IC50", "setting": "[2]", "result": 370, "unit": "nM"},
      {"measurement": "inhibition at 5 µM", "setting": "[3]", "result": "> 50", "unit": "%"},
      {"measurement": "inhibition at 5 µM", "setting": "[4]", "result": "> 50", "unit": "%"}
    ]}
  ]
}
